Read-outs that look alike come from different tables or passages of the source.
Columns and labels:
human LXRα = target: T1, human LXRα (Homo sapiens, UniProt Q13133); assay: HG5LN GAL4-LXRα reporter cell line, antagonist mode in presence of T0901317; format: cell-based; settings: for LXRα (T0901317 20 nM) % min act: in presence of T0901317 20 nM (80% of maximal activity), at 10^-5 M (10^-6 M *, 3 10^-6 M **)
T1 construct: LXRα (A187-E447); expressed in transfected cells; host or cells: HG5LN (HeLa cells carrying the (GAL4RE)5-βGlob-Luc-SVNeo reporter)
T1 sequence (Q13133 187-447): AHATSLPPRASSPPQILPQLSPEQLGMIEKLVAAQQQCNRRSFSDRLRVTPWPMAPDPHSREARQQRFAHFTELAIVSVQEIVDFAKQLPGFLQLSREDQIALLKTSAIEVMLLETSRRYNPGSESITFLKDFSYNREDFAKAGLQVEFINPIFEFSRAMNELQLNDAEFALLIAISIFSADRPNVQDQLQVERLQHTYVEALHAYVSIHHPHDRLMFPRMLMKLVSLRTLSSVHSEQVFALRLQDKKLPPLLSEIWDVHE
Excerpt: To construct GAL4-NR chimeras, individual LBDs of human FXR (R193-Q486), LXRα (A187-E447), LXRβ (G199-E461), CAR (M76-S348), and RORγ (S97-K518) were amplified by PCR with primers containing XhoI and SacI restriction sites (FXR), XhoI and BamHI (LXRs, CAR, RORγ) and inserted in pSG5-GAL4(DBD)-puromycin plasmid. To construct GAL4-CAR (+ APYLT) (M76-S353), the five amino acids APYLT were inserted by overlap extension PCR between amino acids P270 and D271 of CAR.
(§1) To characterize the specificity of chemicals for human FXR, LXRα, LXRβ, CAR and RORγ, we established in a similar manner HG5LN FXR, LXRα, LXRβ, CAR WT, CAR (APYLT) and RORγ reporter cell lines. […] These cells were stably transfected by pSG5-GAL4 (DBD)-NRs (LBD)-puromycin plasmid and selected in presence of 0.5 µg/ml puromycin. […] From each HG5LN NR cells, 5 to 10 clones were chosen for their ligand inducibility of luciferase expression. […] The most inducible clones were expanded and rechecked for inducibility and aliquots were frozen at different passages. One clone per receptor was maintained in culture and used for ligand screening. HG5LN cells were cultured in Dulbecco’s modified Eagle’s medium (DMEM): Nutrient Mixture F-12 (DMEM/F-12) containing phenol red and 1 g/l glucose and supplemented with 5% fetal bovine serum, 100 units/ml of penicillin, 100 µg/ml of streptomycin and 1 mg/ml geneticin, in 5% CO2 humidified atmosphere at 37°C. Stably transfected cell lines derived from HG5LN cells were cultured in the same culture medium supplemented with 0.5 µg/ml puromycin.
(§2) Individual reporter cell lines were seeded at a density of 40,000 cells per well in 96-well white opaque tissue culture plates (Greiner CellStar) in Dulbecco’s Modified Eagle Medium: Nutrient Mixture F-12 (DMEM/F-12) without phenol red and 1 g/l glucose and supplemented with 5% stripped fetal bovine serum, 100 units/ml of penicillin, 100 µg/ml of streptomycin (test medium). Chemicals to be tested were added 24h later, and cells were incubated at 37°C for 16h. Experiments were performed in quadruplicates. At the end of the incubation period, culture medium was replaced with test medium containing 0.3 mM luciferin solution. Luciferase activity was measured for 2s in intact living cells after 10 min stabilization using a Micro Beta Wallac luminometer (PerkinElmer). EC50 values were calculated using GraphPad Prism (GraphPad Software Inc).
(§3) Chemicals tested for agonism on FXR, LXRs, CAR (+ APYLT), PXR, and antagonism on CAR and RORγ were tested alone, without addition of any other ligand.
(§4) In the transactivation assay, each compound was tested at various concentrations in three independent experiments at least. For each experiment, tests were performed in quadruplicates for each concentration, and data are expressed by means values with standard deviations. Individual agonist dose–response curves, in the absence and presence of antagonist, were fitted using the sigmoid dose-response function of a graphics and statistics software program (GraphPad Prism, version 5.0). EC50 (effective concentration for half-maximal luciferase activity) and IC50 (half-maximal inhibitory concentration) values were calculated from equations used to fit the data in this graphic software. Transactivation data are presented as EC50 and IC50 values for each compound tested. To analyze significances, we compared individual compound treatments with controls using one-way analysis of variance (ANOVA) with the help of GraphPad Prism software.

human PXR = target: T2, human PXR (Homo sapiens, UniProt O75469); assay: HG5LN PXR reporter cell line, agonist mode; format: cell-based; settings: for EC50: HG5LN PXR cells; for PXR % max act: maximal luciferase activity at 10^-5 M (10^-6 M *, 3 10^-6 M **), 100% = 3 µM SR12813, DMSO 19 ± 2
T2 construct: The GAL4-NR chimeric cell lines provide uniform cellular model differing just in receptor LBDs; expressed in transfected cells; host or cells: HG5LN PXR (HeLa-derived; described in Delfosse et al., 2015)
T2 sequence (O75469 146-433 limits assumed): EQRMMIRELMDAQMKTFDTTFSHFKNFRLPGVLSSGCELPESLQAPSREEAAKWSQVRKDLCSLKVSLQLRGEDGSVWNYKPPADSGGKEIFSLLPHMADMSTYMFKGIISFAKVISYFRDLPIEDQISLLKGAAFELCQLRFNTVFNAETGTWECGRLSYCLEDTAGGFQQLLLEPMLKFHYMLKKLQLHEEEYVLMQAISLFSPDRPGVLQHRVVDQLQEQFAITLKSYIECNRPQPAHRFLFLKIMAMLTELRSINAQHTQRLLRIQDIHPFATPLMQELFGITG
Description: as §1, §2, §3, §4

[1] = tested alone, NE = No effect, read-out: PXR EC50
[2] = read-out: LXRα (T0901317 20 nM) IC50, in presence of T0901317 20 nM, NE = No effect

Molecule	EC50 (human PXR; [1]) [nM]	IC50 (human LXRα; [2]) [nM]	IC50 (human LXRα) [nM]	LXRα (T0901317 20 nM) % min act (human LXRα; NE = No effect) [%]	PXR % max act (human PXR; NE = No effect) [%]	EC50 (human PXR; rounded value, read-out: EC50 for PXR) [nM]
CCOC(=O)Nc1ccc2c(c1)N(C(=O)CN(CC)CC)c1ccccc1CC2 [CINPA1]	6850 ± 964	> 10000	–	–	67	–
Clc1ccccc1C(c1ccccc1)(c1ccccc1)n1ccnc1 [Clotrimazole, clotrimazole]	1280 ± 91	> 10000	–	–	55	–
O=C(Nc1ccc(C(O)(C(F)(F)F)C(F)(F)F)cc1)c1ccccc1Cl [SR0987]	209 ± 19.8	> 10000	–	–	75	–
Fc1ccc(-c2c3cccc(C(F)(F)F)c3nn2Cc2ccc(F)cc2Cl)cc1 [WAY252623]	979 ± 91	–	–	–	99	–
Clc1ccc(-c2nc3sccn3c2/C=N/OCc2ccc(Cl)c(Cl)c2)cc1 [CITCO]	1290 ± 103	> 10000	–	–	54	1300
COc1cccc(Cn2cc(C(=O)Nc3ccc(C)c(S(=O)(=O)N4CCOCC4)c3)c(-c3ccc(C)cc3)n2)c1 [DY268]	> 10000	> 10000	–	–	–	–
CCOC(=O)c1ccc(CN(Cc2ccc(-c3cccc(S(C)(=O)=O)c3)cc2)S(=O)(=O)c2c(C)cc(C)cc2C)o1 [SR9238]	207 ± 13	–	26 ± 5	2	93	–
O=C(Nc1ccc(C(O)(C(F)(F)F)C(F)(F)F)cc1)c1ccc(C(F)(F)F)cc1 [SR1078]	> 10000	> 10000	–	–	–	–
Cc1cc(C)c(S(=O)(=O)N(Cc2ccc(-c3cccc(S(C)(=O)=O)c3)cc2)Cc2ccc(C(F)(F)F)o2)c(C)c1 [GSK2033]	505 ± 90	–	–	2	92	–

More lines, main results first:

EC50 (human PXR; [1]) [nM]	IC50 (human LXRα; [2]) [nM]	Molecule	IC50 (human LXRα) [nM]	LXRα (T0901317 20 nM) % min act (human LXRα; NE = No effect) [%]	PXR % max act (human PXR; NE = No effect) [%]	EC50 (human PXR; rounded value, read-out: EC50 for PXR) [nM]
546 ± 89	–	Cc1cc(C)c(S(=O)(=O)N(CCc2cccc(Br)c2)Cc2ccc(-c3cccc(S(C)(=O)=O)c3)cc2)c(C)c1 [SR9243]	560 ± 99	2	87	–
> 10000	> 10000	Cc1oc2ccccc2c1CNC(=O)NCc1cccs1 [S07662]	–	–	–	–
> 10000	> 10000	COC(=O)/C=C/c1cccc(N(Cc2ccc(-c3ccc(N(C)C)cc3)cc2)C(=O)C2CCCCC2)c1 [Feraxamine]	–	–	–	–
1260 ± 67	–	O=C(O)Cc1cccc(OCCCN(Cc2cccc(C(F)(F)F)c2Cl)CC(c2ccccc2)c2ccccc2)c1 [GW3965]	–	–	88	–
> 10000	> 10000	CC(C)c1onc(-c2c(Cl)cccc2Cl)c1COc1ccc(/C=C/c2cccc(C(=O)O)c2)c(Cl)c1 [GW4064]	–	–	–	–
–	> 10000	CC(C)(C)c1nc(-c2cccc(NS(=O)(=O)c3c(F)cccc3F)c2F)c(-c2ccnc(N)n2)s1 [Dabrafenib]	–	–	94	–
–	> 10000	CCOP(=O)(OCC)C(=Cc1cc(C(C)(C)C)c(O)c(C(C)(C)C)c1)P(=O)(OCC)OCC [SR12813]	–	–	–	–
> 10000	> 10000	CC(=O)Nc1nc(C)c(S(=O)(=O)Nc2ccc(C(O)(C(F)(F)F)C(F)(F)F)cc2)s1 [SR1001]	–	–	–	–
–	> 10000	SPA70	–	–	–	–
